Here are results for one compound from ChEMBL document CHEMBL1150344, “Interaction of antagonists with calmodulin: insights from molecular dynamics simulations” (J Med Chem, 2008).

This assay concerns the target Calmodulin-1 (Homo sapiens, UniProt P0DP23). The assay can be described thus: Binding affinity to calmodulin.

As usually defined, the Kd is the concentration at which binding is half-saturated. High values mean lower affinity, low ones higher affinity. On to `CCCCOc1ccc([C@@H](C)NCCCNCCC(c2ccccc2)c2ccccc2)cc1OCCCC`, for which binding was put at a Kd of 18 nM.
